From EP0802184B1, “N-Benzyl-2-phenylindoles as estrogenic agents” (Wyeth, priority 1996, dated 1997)

Tests used:
Ishikawa cells = assay: Ishikawa Cell Alkaline Phosphatase Assay; format: cell-based, human; conditions: 48 h
Experimental: Cells were treated for 48 h prior to assay. […] Sample population for at each dose was n=8. […] Plates are placed at -80°C for a minimum of 15 minutes. Plates are thawed at 37°C followed by the addition of 150μL of 0.1 M Tris-HCl, pH 9.8, containing 4 mM para-nitrophenylphosphate (pNPP) to each well (final concentration, 3 mM pNPP). Absorbance and slope calculations were made using the […] Application program (Bio-Tek Instruments, Inc., Winooski, VT). […] Various compounds were assayed for estrogenic activity by the alkaline phosphatase method and corresponding ED50 values (95% C.I.) were calculated. The four listed in the following were used as reference standards: A description of such methods is provided by Holinka, […]., Kuramoto, H. and Gurpide, E. (1986) Effects of steroid hormones and antisteroids on alkaline phosphatase activity in human endometrial cancer cells (Ishikawa Line). Cancer Research, 46:2771-2774, and by […]. and by […] simple and sensitive microtiter plate estrogen bioassay based on stimulation alkaline phosphatase in Ishikawa cells; […] Endocrinology, 6:2757-2762.

estrogen receptor [1] = molecular target: T1, estrogen receptor (Homo sapiens, UniProt P03372); assay: 2X VIT ERE Transfection Assay (Infection Luciferase Assay); format: cell-based; conditions: 24 h
T1 sequence (P03372 1-595): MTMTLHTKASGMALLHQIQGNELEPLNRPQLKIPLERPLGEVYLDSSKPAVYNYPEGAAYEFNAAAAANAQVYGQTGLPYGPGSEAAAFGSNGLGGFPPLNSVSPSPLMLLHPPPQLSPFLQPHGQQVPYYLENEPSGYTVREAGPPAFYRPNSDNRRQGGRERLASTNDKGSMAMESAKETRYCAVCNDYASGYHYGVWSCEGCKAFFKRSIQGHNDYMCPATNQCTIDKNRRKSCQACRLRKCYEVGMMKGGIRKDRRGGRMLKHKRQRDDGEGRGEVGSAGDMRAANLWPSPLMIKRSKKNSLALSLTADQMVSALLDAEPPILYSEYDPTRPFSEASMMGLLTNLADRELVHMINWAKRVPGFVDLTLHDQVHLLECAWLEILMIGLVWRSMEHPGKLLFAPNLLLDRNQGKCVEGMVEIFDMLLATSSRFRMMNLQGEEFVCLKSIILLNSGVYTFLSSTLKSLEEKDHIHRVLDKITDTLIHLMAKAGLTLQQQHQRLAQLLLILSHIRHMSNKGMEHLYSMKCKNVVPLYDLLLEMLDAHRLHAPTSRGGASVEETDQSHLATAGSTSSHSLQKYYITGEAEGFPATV
Experimental: Chinese Hamster Ovary cells (CHO) which had been stably transfected with the human estrogen receptor were maintained in DMEM + 10% fetal bovine serum (FBS). 48h prior to treatment the growth medium was replaced with DMEM lacking phenol red + 10% dextran coated charcoal stripped FBS (treatment medium). Cells were plated at a density of 5000 cells/well in 96-well plates containing 200 µL of medium/well.
Reporter DNA (Promega plasmid pGL2 containing two tandem copies of the vitellogenin ERE in front of the minimal thymidine kinase promoter driving the luciferase gene) was combined with the B-galactosidase expression plasmid pCH110 (Pharmacia) and carrier DNA (pTZ18U) in the following ratio: • 10uG of reporter DNA • 5uG of pCH110DNA • 5 uG of pTZ18U • 20 uG of DNA/1 mL of transfection solution
20 uL of this mixture was added to each well of cells and remained on the cells for 16 h. […] Each treatment condition was performed on 8 wells (n=8) which were incubated for 24 h prior to the luciferase assay.
After removing the PBS, 25 uL of Promega lysis buffer was added to each well and allowed to stand at room temperature for 15 min, followed by 15 min at -80°C and 15 min at 37°C. 20 uL of lysate was transferred to an opaque 96 well plate for luciferase activity evaluation and the remaining lysate (5 uL) was used for the B-galactosidase activity evaluation (normalize transfection). The luciferan substrate (Promega) was added in 100 uL aliquots to each well automatically by the luminometer and the light produced (relative light units) was read 10 seconds after addition.
To the remaining 5 uL of lysate 45 uL of PBS was added. Then 50 uL of Promega B-galactosidase 2X assay buffer was added, mixed well and incubated at 37°C for 1 hour. A plate containing a standard curve (0.1 to 1.5 milliunits in triplicate) was set up for each experimental run. The plates were analyzed on a Molecular Devices spectrophotometric plate reader at 410 nm. The optical densities for the unknown were converted to milliunits of activity by mathematical extrapolation from the standard curve.
The luciferase data was generated as relative light units (RLUs) accumulated during a 10 second measurement and automatically transferred to a JMP (SAS Inc) file where background RLUs were subtracted. The B-galactosidase values were automatically imported into the file and these values were divided into the RLUs to normalize the data. The mean and standard deviations were determined from a n=8 for each treatment. […] These techniques are described by Tzukerman, M.T., Esty, A., Santiso-Mere, D., Danielian, P., Parker, M.G., Stein, R.B., Pike, J.W. and McDonnel, D.P. (1994). Human estrogen receptor transactivational capacity was determined by both cellular and promoter context and mediated by two functionally distinct intramolecular regions (see Molecular Endocrinology, 8:21-30).

estrogen receptor [2] = molecular target: T1, estrogen receptor; assay: In vitro estrogen receptor binding assay (competition with [3H]-17β-estradiol); design: expressed in transfected cells; host or cells: CHO cells (ribosome-free cytosol); conditions: relative to 17β-estradiol=100; cytosol of CHO cells overexpressing the estrogen receptor
Experimental: CHO cells overexpressing the estrogen receptor were grown in 150 mm^2 dishes in DMEM + 10% dextran coated charcoal, stripped fetal bovine serum. The plates were washed twice with PBS and once with 10mM Tris-HCl, pH 7.4, 1mM EDTA. Cells were harvested by scraping the surface and then the cell suspension was placed on ice. Cells were disrupted with a hand-held motorized tissue grinder using two, 10-second bursts. The crude preparation was centrifuged at 12,000g for 20 minutes followed by a 60 minute spin at 100,000g to produce a ribosome free cytosol. The cytosol was then frozen and stored at -80°C. Protein concentration of the cytosol was estimated using the BCA assay with reference standard protein.
100uG/100uL of the receptor preparation was aliquoted per well. […] The plate was incubated at room temperature for 2.5 h. At the end of this incubation period 150 uL of ice-cold dextran coated charcoal (5% activated charcoal coated with 0.05% 69K dextran) was added to each well and the plate was immediately centrifuged at 99g for 5 minutes at 4°C. 200 uL of the supernatant solution was then removed for scintillation counting. Samples were counted to 2% or 10 minutes, whichever occurs first. […] Also, wells containing radioactivity but no cytosol were processed with charcoal to estimate unremovable DPM of [^3H]
Counts per minute (CPM) of radioactivity were automatically converted to disintegrated per minute (DPM) by the Beckman LS 7500 Scintillation Counter using a set of quenched standards to generate a H# for each sample.
For the generation of IC50 curves, % binding is plotted vs compound. […] For a description of these methods, see Hulme, E.C., ed. 1992. Receptor-Ligand Interactions: A Practical Approach. IRL Press, New York.(see especially chapter 8).

`CCN(CC)C(=O)/C=C/c1ccc(Cn2c(-c3ccc(O)cc3)c(C)c3cc(O)ccc32)cc1` [Example 7, (E)-N, N-Diethyl-3-{4-[5-hydroxy-2-(4-hydroxy-phenyl)-3-methyl-indol-1-ylmethyl]-phenyl}-acrylamide] was tested, and the “% Activation (Compound + 1 nM 17β-estradiol)” value (Ishikawa cells; 10^-6 M compound + 10^-9 M 17β-estradiol) was 9%, the “% Activation” value (Ishikawa cells; compound alone, percent of response related to 1 nM 17β-estradiol) was 1% and the “% Activation with 1 nM 17β-estradiol” value (estrogen receptor [1]; 1 uM compound + 1 nM 17β-estradiol (test for estrogen antagonism)) was 8%. The “% Activation” value (estrogen receptor [1]; compound alone (1 uM), compared to 17β-estradiol) was 4% and the “Estrogen Receptor Affinity (reported as RBA: 17β-estradiol=100)” value (estrogen receptor [2]) was 42.
